# Reference: US6291463A, “1-(Benzothiazol-2-yl)-4-(1-phenylmethyl) piperazines: dopamine receptor subtype specific ligands” (Neurogen Corporation, priority 1999, dated 2001)
# Where a name gives a salt, the structure may show the parent alone.
# Key:
# [1] = molecular target: D2 receptors (Chlorocebus aethiops, UniProt P52702); experiment: D2 receptor binding (displacement of 3H-YM 09151-2); parameters: species or system African Green monkey; conditions: COS cells with recombinant D2 receptors; 0.5 nM 3H-YM 09151-2; Table 2
# D2 receptors, sequence (P52702 whole entry): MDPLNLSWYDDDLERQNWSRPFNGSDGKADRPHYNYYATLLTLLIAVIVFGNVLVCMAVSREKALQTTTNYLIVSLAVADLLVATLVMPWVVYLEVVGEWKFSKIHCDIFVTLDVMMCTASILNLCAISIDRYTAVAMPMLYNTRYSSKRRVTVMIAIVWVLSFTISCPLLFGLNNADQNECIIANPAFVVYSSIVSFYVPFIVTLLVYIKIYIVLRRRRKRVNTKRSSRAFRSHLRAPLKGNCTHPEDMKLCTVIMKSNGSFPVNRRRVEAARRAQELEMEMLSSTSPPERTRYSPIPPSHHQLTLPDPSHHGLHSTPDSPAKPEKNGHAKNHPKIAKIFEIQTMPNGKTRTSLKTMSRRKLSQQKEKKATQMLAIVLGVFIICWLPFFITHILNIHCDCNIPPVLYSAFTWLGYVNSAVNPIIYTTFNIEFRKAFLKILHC
# Protocol: (§1) Assay for D2 and D4 Receptor Binding Activity
# (§2) Pellets of COS cells containing recombinantly produced D2 or D4 receptors from African Green monkey were used for the assays. The sample is homogenized in 100 volumes (w/vol) of 0.05 M Tris HCl buffer at 4° C. and pH 7.4. The sample is then centrifuged at 30,000×g and resuspended and rehomogenized. The sample is then centrifuged as described and the final tissue sample is frozen until use. The tissue is resuspended 1:20 (wt/vol) in 0.05 M Tris HCl buffer containing 100 mM NaCl.
# (§3) Incubations are carried out at […] and contain 0.4 ml of tissue sample, 0.5 nM ^3 H-YM 09151-2 (Nemonapride, cis-5-Chloro-2-methoxy-4-(methylamino)-N-(2-methyl-2-(phenylmethyl)-3-pyrroli-dinyl)benzamide) and the compound of interest in a total incubation of 1.0 ml. Nonspecific binding is defined as that binding found in the presence of 1 mM spiperone; without further additions, nonspecific binding is less than 20% of total binding.
# [2] = molecular target: D4 receptors; experiment: D4 receptor binding (displacement of 3H-YM 09151-2); parameters: species or system African Green monkey; conditions: COS cells with recombinant D4 receptors; 0.5 nM 3H-YM 09151-2; Table 2
# Protocol: as §1, §2, §3
Compound,Ki [1] [nM],Ki [2] [nM]
"Clc1ccc(CN2CCN(c3nc4ccccc4s3)CC2)cc1 [Compound 1A, 1-(Benzothiazol-2-yl)-4-(1-[4-chlorophenyl]methyl)piperazine]",> 4000,14
"Cc1ccc(CN2CCN(c3nc4ccccc4s3)CC2)cc1 [Compound 2A, 1-(benzothiazol-2-yl)-4-(1-[4-methylphenyl]methyl)piperazine oxalate]",3510,25
"c1ccc2cc(CN3CCN(c4nc5ccccc5s4)CC3)ccc2c1 [Compound 4A, 1-(benzothiazol-2-yl)-4-(1-[2-naphthyl]methyl)piperazine oxalate]",3510,76
